The target in test [1] is T1, MraY (Escherichia coli, UniProt P0A6W3).
T1 construct: endogenous in cells; host or cells: E. coli K-12 ET505 (W3110 lysA::Tn10) membranes, carrying pJFlacZK (control) or pEmycZK (E-expressing)
T1 sequence (P0A6W3 1-360): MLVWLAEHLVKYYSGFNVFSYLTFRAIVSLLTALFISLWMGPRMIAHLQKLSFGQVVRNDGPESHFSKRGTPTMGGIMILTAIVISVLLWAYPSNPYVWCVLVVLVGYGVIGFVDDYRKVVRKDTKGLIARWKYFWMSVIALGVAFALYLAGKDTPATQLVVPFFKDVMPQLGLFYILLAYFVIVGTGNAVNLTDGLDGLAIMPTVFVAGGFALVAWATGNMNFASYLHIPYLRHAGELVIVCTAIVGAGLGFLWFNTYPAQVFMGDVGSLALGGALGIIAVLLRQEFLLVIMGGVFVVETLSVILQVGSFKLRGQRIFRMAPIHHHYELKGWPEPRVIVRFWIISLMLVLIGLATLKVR
The format is biochemical, E. coli. The note with it: membranes of ET505 strains; average of 3 experiments ± standard deviation (tunicamycin: average of duplicates).

For test [2], the target named is T2, Rfe (Escherichia coli, UniProt P0AC78).
T2 construct: endogenous in cells; host or cells: E. coli K-12 ET505 (W3110 lysA::Tn10) membranes, carrying pJFlacZK (control) or pEmycZK (E-expressing)
T2 sequence (P0AC78 1-367): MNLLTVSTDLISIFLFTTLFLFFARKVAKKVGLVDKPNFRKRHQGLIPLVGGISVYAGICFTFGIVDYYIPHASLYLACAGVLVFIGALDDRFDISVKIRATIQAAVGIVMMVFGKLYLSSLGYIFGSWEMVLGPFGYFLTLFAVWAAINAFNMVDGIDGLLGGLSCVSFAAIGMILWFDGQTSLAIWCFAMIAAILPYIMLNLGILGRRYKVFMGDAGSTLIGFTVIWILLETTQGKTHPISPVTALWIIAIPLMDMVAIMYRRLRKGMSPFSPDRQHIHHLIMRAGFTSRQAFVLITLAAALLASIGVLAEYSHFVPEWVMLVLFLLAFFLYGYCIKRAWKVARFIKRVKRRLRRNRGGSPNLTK
The format is biochemical, E. coli. The note with it: membranes of ET505 strains; average of 3 experiments ± standard deviation.

With tunicamycin, in test [1], the “cpm of [3H]-UMP converted to [3H]-UDP-MurNAc-pentapeptide in membrane preparations by MraY” value is on record as 2000 cpm. Besides, the “cpm of [3H]-UMP converted to [3H]-UDP-GlcNAc in membrane preparations by Rfe” value in test [2] is given as 3400 ± 500 cpm.

These data come from patent publication US20050191628A1, “Antibiotics based upon bacteriophage lysis proteins” (priority 1999, published 2005).
